Assay results taken from patent publication US7511119B2, “PRAME peptide analogues” (MannKind Corporation, priority 2005, dated 2009).
Square brackets hold non-standard residues; d marks the D form. Ends that are not written are not given here. Peptide text beside a SMILES is read from it. Phe(4-NO2) = N[C@@H](Cc1ccc([N+](=O)[O-])cc1)C(=O)O; Bta = N[C@@H](Cc1csc2ccccc12)C(=O)O; Phg = N[C@H](C(=O)O)c1ccccc1; Nle = CCCC[C@H](N)C(=O)O; Nva = CCC[C@H](N)C(=O)O

How the values were obtained:
[1] = target: HLA-A*0201 (Homo sapiens, UniProt P04439, D140Y/D185E/D98H/E176V/E277Q/G131W/G231S/I119V/I121R/I166T/I218V/L300P/L318F/N151K/N90K/P208A/P217A/Q86G/Q94H/R138H/R169H/T345S); test: Peptide binding using T2 cells; conditions: half maximal binding of wild-type peptide relative to analog;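 further: Read-out is peptide-induced stabilization of HLA-A*0201 on the cell surface, reflecting mainly Kon at limiting peptide levels and both Kon and Koff at saturating levels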
From the text: Thus, at limiting concentrations of peptide, it is a measurement of Kon mostly and at saturation levels of peptide it is a measurement of both Kon and Koff.
Thus, at limiting concentrations of peptide, this is a measurement of Kon mostly and at saturation levels of peptide that is a measurement of both Kon and Koff.

[2] = system: T cell lines against natural epitope SSX-241-49; test: Cross-reactivity and functional avidity: IFN-gamma production by T cell lines raised against natural SSX-2 41-49; type: cell-based, HHD transgenic mice; conditions: T cells raised to native peptide tested on analogs; footnote * and unit not given;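 further: analogs presented ex vivo by competent APCs to T cells specific for the non-mutated epitope, scored by lowest activating concentration, peak cytokine effect and concentration at that peak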
[3] = target: T1, HLA-A*0201 on T2 cells (human); test: T2 cells, wild-type/analog half-maximal binding
T1 construct: whole, on cells; Class I MHC on the surface of T2 cells, detected with a fluorescent anti-A2 antibody; beta2-microglobulin is not mentioned for this assay; also called MHC class I (A2 allele)

Molecule	Relative affinity (1/RA) [1]	Cross-reactivity and fct avidity (native to analogs)* [2]	Relative affinity (1/RA) [3]
KASEKIFYI-OH [SSX2 41-49(V49I)]	1.0	10	–
CC[C@H](C)[C@H](NC(=O)[C@H](CCCCN)NC(=O)[C@H](CCC(=O)O)NC(=O)[C@H](CO)NC(=O)[C@@H](NC(=O)[C@@H](N)Cc1ccccc1)C(C)C)C(=O)N[C@@H](Cc1ccccc1)C(=O)N[C@H](C(=O)N[C@H](C(=O)O)C(C)C)c1ccccc1 [SSX2 41-49 (K41F, A42V, Y48Phg), FVSEKIF(Phg)V] (H-FVSEKIF[Phg]V-OH)	2.5	>10	–
FVSQKIFYV [SSX2 41-49 (K41F, A42V, E44Q)]	0.4	10	–
FVSEKIFYM [SSX2 41-49 (K41F, A42V, V49M)]	0.8	>10	–
CC[C@H](C)[C@H](NC(=O)[C@H](CCCCN)NC(=O)[C@H](CCC(=O)O)NC(=O)[C@H](CO)NC(=O)[C@H](C)NC(=O)[C@@H](N)c1ccccc1)C(=O)N[C@@H](Cc1ccccc1)C(=O)N[C@@H](Cc1ccc(O)cc1)C(=O)N[C@H](C(=O)O)C(C)C [SSX2 41-49 (K41(Phg))] (H-[Phg]ASEKIFYV-OH)	2.5	0.1	–
FVSDKIFYV [SSX2 41-49 (K41F, A42V, E44D)]	1.1	>10	–
WMSEKIFYV-OH [SSX2 41-49 (K41W, A42M)]	2.9	1	–
FVSEKLFTV [SSX2 41-49 (K41F, A42V, I46L, Y48T)]	2.6	>10	–
CCCC[C@H](NC(=O)[C@H](CO)NC(=O)[C@@H](NC(=O)[C@@H](N)Cc1ccccc1)C(C)C)C(=O)N[C@@H](CCCCN)C(=O)N[C@H](C(=O)N[C@@H](Cc1ccccc1)C(=O)N[C@@H](Cc1ccc(O)cc1)C(=O)N[C@H](C(=O)O)C(C)C)[C@@H](C)CC [SSX2 41-49 (K41F, A42V, E44Nle), FVS(Nle)KIFYV] (H-FVS[Nle]KIFYV-OH)	1.1	10	–
CC[C@H](C)[C@H](NC(=O)[C@H](CCCCN)NC(=O)[C@H](CCC(=O)O)NC(=O)[C@H](CO)NC(=O)[C@H](C)NC(=O)[C@@H](N)Cc1ccc(OC)cc1)C(=O)N[C@@H](Cc1ccccc1)C(=O)N[C@@H](Cc1ccc(O)cc1)C(=O)N[C@H](C(=O)O)C(C)C [SSX2 41-49 (K41(O-methyl Tyr))] (H-Y(Me)ASEKIFYV-OH)	0.8	3	–
WLSEKIFYV-OH [SSX2 41-49 (K41W, A42L)]	3.3	0.3	–
CCCC[C@H](NC(=O)[C@H](CCCCN)NC(=O)[C@H](CCC(=O)O)NC(=O)[C@H](CO)NC(=O)[C@@H](NC(=O)[C@@H](N)Cc1ccccc1)C(C)C)C(=O)N[C@@H](Cc1ccccc1)C(=O)N[C@@H](Cc1ccc(O)cc1)C(=O)N[C@H](C(=O)O)C(C)C [SSX2 41-49 (K41F, A42V, I46Nle), FVSEK(Nle)FYV] (H-FVSEK[Nle]FYV-OH)	1.1	10	–
FVSEKIFYV [SSX2 41-49 (K41F, A42V)]	3.1	0.1	–
CC[C@H](C)[C@H](NC(=O)[C@H](CCCCN)NC(=O)[C@H](CCC(=O)O)NC(=O)[C@H](CO)NC(=O)[C@H](C)NC(=O)[C@@H](N)Cc1ccc([N+](=O)[O-])cc1)C(=O)N[C@@H](Cc1ccccc1)C(=O)N[C@@H](Cc1ccc(O)cc1)C(=O)N[C@H](C(=O)O)C(C)C [SSX2 41-49 (K41(Phe-4NO2))] (H-[Phe(4-NO2)]ASEKIFYV-OH)	1.1	3	–
CCC[C@H](NC(=O)[C@H](CO)NC(=O)[C@@H](NC(=O)[C@@H](N)Cc1ccccc1)C(C)C)C(=O)N[C@@H](CCCCN)C(=O)N[C@H](C(=O)N[C@@H](Cc1ccccc1)C(=O)N[C@@H](Cc1ccc(O)cc1)C(=O)N[C@H](C(=O)O)C(C)C)[C@@H](C)CC [SSX2 41-49 (K41F, A42V, E44Nva), FVS(Nva)KIFYV] (H-FVS[Nva]KIFYV-OH)	3.9	3	–
KMSEKIFYV [SSX2 41-49 (A42M)]	1.7	0.1	–
CC[C@H](C)[C@H](NC(=O)[C@H](CCCCN)NC(=O)[C@H](CCC(=O)O)NC(=O)[C@H](CO)NC(=O)[C@H](C)NC(=O)[C@@H](N)Cc1csc2ccccc12)C(=O)N[C@@H](Cc1ccccc1)C(=O)N[C@@H](Cc1ccc(O)cc1)C(=O)N[C@H](C(=O)O)C(C)C [SSX2 41-49 (K41(b-(3-benzothienyl)Ala))] (H-[Bta]ASEKIFYV-OH)	0.6	10	–
CC[C@H](C)[C@H](NC(=O)[C@H](CCCCN)NC(=O)[C@H](CCC(=O)O)NC(=O)[C@H](CO)NC(=O)[C@@H](NC(=O)[C@@H](N)Cc1ccc(O)cc1)C(C)C)C(=O)N[C@@H](Cc1ccccc1)C(=O)N[C@@H](Cc1ccc(O)cc1)C(=O)N[C@H](C(=O)O)C(C)C [SSX2 41-49 (K41Y, A42V)]	1.0	0.1	–

Molecule	Relative affinity (1/RA) [1]	Cross-reactivity and fct avidity (native to analogs)* [2]	Relative affinity (1/RA) [3]
KISEKIFYV [SSX2 41-49 (A42I)]	1.7	3	–
WVSEKIFYV-OH [SSX2 41-49 (K41W, A42V)]	3.0	1	–
FVSEKIFTV-OH [SSX2 41-49 (K41F, A42V, Y48T)]	3.8	>10	–
YMSEKIFYV-OH [SSX2 41-49 (K41Y, A42M)]	0.6	3	–
FVSEKIFSV [SSX2 41-49 (K41F, A42V, Y48S)]	3.9	>10	–
FISEKIFYV [SSX2 41-49 (K41F, A42I)]	2.7	0.3	–
KLSEKIFYI [SSX2 41-49 (A42L, V49I)]	2.6	0.03	–
FVSEKLFYV [SSX2 41-49 (K41F, A42V, I46L)]	1.9	3	–
FVSEKLFSA	2.4	>10	–
CCC[C@H](NC(=O)[C@H](CCCCN)NC(=O)[C@H](CCC(=O)O)NC(=O)[C@H](CO)NC(=O)[C@@H](NC(=O)[C@@H](N)Cc1ccccc1)C(C)C)C(=O)N[C@@H](Cc1ccccc1)C(=O)N[C@@H](Cc1ccc(O)cc1)C(=O)N[C@H](C(=O)O)C(C)C [SSX2 41-49 (K41F, A42V, I46Nva), FVSEK(Nva)FYV] (H-FVSEK[Nva]FYV-OH)	2.4	1	–
CC[C@H](C)[C@H](NC(=O)[C@H](CCCCN)NC(=O)[C@H](CCC(=O)O)NC(=O)[C@H](CO)NC(=O)[C@@H](NC(=O)[C@@H](N)Cc1ccccc1)C(C)C)C(=O)N[C@@H](Cc1ccccc1)C(=O)N[C@@H](Cc1ccccc1)C(=O)N[C@H](C(=O)O)C(C)C [SSX2 41-49 (K41F, A42V, Y48F)]	1.7	10	–
CC[C@H](C)[C@H](NC(=O)[C@H](CCCCN)NC(=O)[C@H](CCC(=O)O)NC(=O)[C@H](CO)NC(=O)[C@H](CC(C)C)NC(=O)[C@H](N)CCCCN)C(=O)N[C@@H](Cc1ccccc1)C(=O)N[C@@H](Cc1ccc(O)cc1)C(=O)N[C@H](C(=O)O)C(C)C [SSX2 41-49 (K41(D-Lys), A42L)]	–	10	–
YLSEKIFYV-OH [SSX2 41-49 (K41Y, A42L)]	1.2	–	–
CCC[C@H](NC(=O)[C@@H](N)CCCCN)C(=O)N[C@@H](CO)C(=O)N[C@@H](CCC(=O)O)C(=O)N[C@@H](CCCCN)C(=O)N[C@H](C(=O)N[C@@H](Cc1ccccc1)C(=O)N[C@@H](Cc1ccc(O)cc1)C(=O)N[C@H](C(=O)O)C(C)C)[C@@H](C)CC [SSX2 41-49 (A42(Nva)), KNvaSEKIFYV]	–	0.1	–
FVSDKIFYV [SSX2 41-49 (K41F, A42V, E44D)]	–	–	1.1 1/RA
FVSQKIFYV [SSX2 41-49 (K41F, A42V, E44Q)]	–	–	0.4 1/RA
FVSEKLFYV [SSX2 41-49 (K41F, A42V, I46L)]	–	–	1.9 1/RA
FVSEKLFSA [SSX2 41-49 (K41F, A42V, I46L, Y48S, V49A)]	–	–	2.4 1/RA
